Source: ChEMBL document CHEMBL3399969, “Multifunctional scutellarin-rivastigmine hybrids with cholinergic, antioxidant, biometal chelating and neuroprotective properties for the treatment of Alzheimer's disease” (Bioorg Med Chem, 2015)

Experiments:
[1] = tested on: Mus musculus; assay: Cognitive enhancing effect in Kunming mouse assessed as inhibition of scopolamine-induced decreased spontaneous alternation behavior at 6 mg/kg after 30 mins by T-maze test; assay type: functional; parameters: scale not given: the % may be the effect or the level left
[2] = tested on: Mus musculus; assay: Neuroprotective effect in Kunming mouse hippocampus assessed as reduction of scopolamine-induced vitality of AChE at 6 mg/kg by Ellman method; assay type: functional
[3] = tested on: Mus musculus; assay: Neuroprotective effect in scopolamine-treated Kunming mouse hippocampus assessed as increase in vitality of ChAT at 6 mg/kg by Ellman method; assay type: functional
[4] = Inhibition of rat serum BuChE using butyrylthiocholine iodide as substrate after 15 mins by Ellman method; assay type: cell-free

SMILES: CCN(C)C(=O)Oc1cccc([C@H](C)N(C)C)c1 [RIVASTIGMINE]
- Activity [1]: 67.3%
- Activity [2]: 0.087 U/mg
- Activity [3]: 44.8 U/mg
- IC50 [4]: 1400 nM
